Source: patent US20260317367A1, “SALTS INCLUDING CRYSTALLINE SALTS OF 25-HYDROXY-CHOLEST-5-EN-3-SULFATE AND METHODS FOR PREPARING SAME” (Durect Corporation, priority 2022, published 2026)
“Also recorded” adds a separate entry of the source. Structures can show the parent of a compound that is named as a salt.

Tests used:
Format in all cases: physicochemical
[1] = Hausner ratio and compressibility index of 25HC3S salts; conditions: for Compressibility Index: Table C3 heads this index in %
Experimental: Although there are some variations in the method of determining the compressibility index and Hausner ratio, the basic procedure is to measure the unsettled apparent volume, VO, and the final tapped volume, Vf, of the powder after tapping the material until no further volume changes occur. The compressibility index and the Hausner ratio are calculated as follows: […]
Both the Hausner ratio and the compressibility index are empirically established. The Hausner ratio and compressibility index are not absolute properties of a material; its value can vary depending on the methodology used to determine them. In this case, since the 14 salts of 25HC3S were measured the same way, the relative values should be accurate.
Table C3, from USP <1174> Powder Flow, describes the flow character of the powder based on the compressibility index and Hausner ratio values.
Powder was carefully poured into a 5 mL glass graduated cylinder (to contain) until it was close to or at 5.0 mL. This initial volume was recorded as Vo. The graduated cylinder was tapped on a hard surface for 200 times and the volume was recorded. The cylinder was tapped 100 times more, and the final volume Vf was recorded. Typically, the volume after 200 taps was identical to after 300 taps, or within 0.1 mL.

[2] = Overall rank order of powder flowability (angle of repose and Hausner ratio); conditions: for Powder flowability, overall (in words): angle of repose and compressibility index/Hausner ratio combined; for Angle of Repose Rank Order / Hausner Ratio Rank Order / Overall Rank Order (Total Score): lower is better flow; for Overall Rank Order (Total Score): sum of both ranks
Source text: Table C5 was generated by adding the relative rank order of the 25HC3S salts for angle of repose and Hausner ratio results, and creating an Over All Rank Order of the salts powder flowability. The salts with the lower overall rank order score had better powder flowability.

[3] = Angle of repose of 25HC3S salts
Experimental: Angle of repose is measured as follows. Powder is poured from a funnel onto a flat surface until a cone of powder is created. The angle of repose is calculated according to the following equation: […]
Table C1, from USP<1174> Powder Flow, describes the powder flow properties correlating to the angles of repose.
The lower the angle of repose, the more flowable is a material. Powder with an angle of repose between 25° to 30° will show excellent flow through a hopper, feed frame, die table and die bore smoothly. From 41° to greater than 66°, you may experience powder flow difficulties like rat-holing or bridging within the hopper.
The angle of repose was determined by pouring approximately 2 grams of a 25HC3S salt through a 7 mm inner diameter plastic tube into the center of a 21.14 mm diameter rubber O-ring, resulting in the formation of a powder cone of fixed diameter. The height of the cone was estimated with calipers.

[4] = Thermogravimetric analysis (TGA), weight loss
Experimental: Differential scanning calorimetry (DSC) is a thermoanalytical technique where the difference in the amount of heat required to increase the temperature of a sample and reference is measured as a function of temperature. Using this technique, phase transitions of a sample can be measured such as melting point. Decomposition can also be observed by DSC as can dehydration events. In the context of DSC measurements, there is also variability and the term “about” means ±1° C., and such variability is to be understood whether a DSC measurement is prefaced by “about” or not unless specified otherwise. Exemplary methods for collecting DSC data are set forth in Example 21. Thermogravimetric analysis, sometimes referred to as, thermal gravimetric analysis (TGA) is a thermal method of thermal analysis where the mass of a sample is measured as a function of time as the sample temperature changes. For example, when samples disclosed herein are heated and a loss in mass is measured prior to decomposition, this is likely indicative of the loss of water from the sample and may indicate that the sample being heated is a hydrate. Exemplary methods for collecting TGA are set forth in Example 23.
TG analysis was performed using a Mettler-Toledo TGA/DSC3 analyzer. Temperature and enthalpy adjustments were performed using indium, tin, and zinc, and then verified with indium. The balance was verified with calcium oxalate. The sample was placed in an open aluminum pan. The pan was hermetically sealed, the lid pierced, then inserted into the TG furnace. A weighed aluminum pan configured as the sample pan was placed on the reference platform. The furnace was heated under nitrogen. Each sample was heated from ambient temperature to 350° C. at 10° C./min. Although thermograms are plotted by reference temperature (x-axis), results are reported according to sample temperatures.

[5] = Solid-state chemical stability of 25HC3S salts at 2-8° C., 60° C. and 80° C. (HPLC assay and degradation products); conditions: for % Impurities, Total / % Impurities, 25-HC: ND = Not Detected; for % Impurities, 25-HC: 25-Hydroxy-Cholesterol; for % Recovery: vs 2-8° C.; for Stability after 1 week at 60° C. (in words) / Stability after 3 weeks at 80° C. (in words): solid state; for Stability after 1 week at 60° C. (in words): 1 week (after 3 weeks at 2-8° C.)
Experimental: Approximately 25 mg of each crystalline 25HC3S salt was added to 20 mL glass vials and each powder weight was recorded. Four vials were prepared for each salt and stored at 2-8° C. or 80° C. according to Table B2. The samples were scheduled initially to pull for testing at 3 weeks and 6 weeks' time points.
For those […] salts, the remaining vials stored at 2-8° C. for 3 weeks were allocated for storage at 60° C. for 1 week. Additional stability data was generated according to Table B3.
Based on the molecular weights, and expected UV response factors of each salt used in this study, the expected analytical sample concentrations were within the range of the 25HC3S sodium reference standards (0.75 mg/mL to 1.25 mg/mL as 25HC3S sodium salt). However, due to the lower-than-expected purity of the 25HC3S benzathine salt, an additional standard was prepared at 0.125 mg/mL as 25HC3S sodium salt.
Samples were prepared by pipetting 20 mL of 100% methanol into each vial and mixing well, with sonication and vortexing to fully dissolve the samples for HPLC analysis.
Samples were prepared by pipetting 20 mL of 100% methanol into each vial followed by two rounds of sonication for 30 minutes, with 30 seconds of vortexing before and after each round. Sample aliquots were then centrifuged at 10,000 RPM for 10 minutes and the supernatant collected for HPLC analysis.
Samples were prepared by pipetting 20 mL of 100% methanol into each vial, followed by 5 seconds of vortexing. The undissolved powder in methanol was quantitatively transferred into 200 mL volumetric flasks. The sample vials were rinsed 3 times with methanol, with each rinsate transferred to the 200 mL volumetric flasks. The volumetric flasks were filled to about 90% volume and sonicated for 10 minutes to fully dissolve the powder. The flasks were filled to volume with methanol, mixed well and aliquots collected for HPLC analysis.
HPLC analysis was performed.

[6] = listed as 25HC3S hydroxyethylammonium
[7] = 2-8° C., 3 wk, listed as 25HC3S hydroxyethylammonium
[8] = 60° C., 1 wk, listed as 25HC3S hydroxyethylammonium
[9] = listed as 25HC3S hydroxyethylpyrrolidinium
[10] = 2-8° C., 3 wk, listed as 25HC3S hydroxyethylpyrrolidinium
[11] = 60° C., 1 wk, listed as 25HC3S hydroxyethylpyrrolidinium
[12] = 80° C., 3 wk, listed as 25HC3S hydroxyethylpyrrolidinium

CC(CCCC(C)(C)O)C1CCC2C3CC=C4CC(OS(=O)(=O)O)CCC4(C)C3CCC12C (centres unmarked) [Salt #5]
Compressibility Index [1, 6]: 18
Hausner Ratio [1, 6]: 1.22
Powder flowability, overall (in words) ([2]; listed as crystalline 25HC3S hydroxyethylammonium): relatively good flowability
Powder flowability, overall (in words) ([2]; listed as hydroxyethylammonium): top three
Angle of Repose Rank Order [2, 6]: 1
Hausner Ratio Rank Order [2, 6]: 1
Overall Rank Order (Total Score) [2, 6]: 2
Angle of Repose [3, 6]: 24.8 degrees
Angle of Repose, Rounded Whole Number [3, 6]: 25 degrees
Weight loss by TGA, ambient to 134° C. ([4]; ambient to 134° C.): about 2.7%
Assay ([5]; 2-8° C., 3 wk, 30240 min, listed as 25HC3S hydroxyethylammonium): 91.9 % w/w
% Impurities, Total [5, 7]: 3.1%
Overall physical and chemical stability (in words) ([5]; 2-8° C., 60° C., 80° C.): least stable organic salt; also recorded: least physically and chemically stable
% Impurities, 25-HC [5, 7]: 1.2%
% Impurities, 25-HC [5, 8]: 11.3%
Physical and chemical solid-state stability (comments) ([5]; 60° C., 1 week, listed as 25HC3S Hydroxyethylammonium): Totally decomposed after 1 week at 60 °C and after 3 weeks at 80 °C
Assay ([5]; 60° C., 1 wk (after 3 weeks at 2-8° C.), 10080 min, listed as 25HC3S hydroxyethylammonium, 10080 min): 0.0 % w/w
% Recovery of 2-8° C./3 wk vs 60° C./1 wk ([5]; 60° C., 1 wk, 10080 min, listed as 25HC3S hydroxyethylammonium): 0.0%
% Impurities, Total [5, 8]: 99.7%
Physical and chemical solid-state stability (comments) ([5]; 80° C., 3 weeks, listed as 25HC3S Hydroxyethylammonium): Totally decomposed after 1 week at 60 °C and after 3 weeks at 80 °C
% Recovery ([5]; 80° C., 3 wk, 30240 min, listed as 25HC3S hydroxyethylammonium, 30240 min): 0.0%
Assay ([5]; 80° C., 3 wk, 30240 min, listed as 25HC3S hydroxyethylammonium): 0.0 % w/w
% Impurities, Total ([5]; 80° C., 3 wk, listed as 25HC3S hydroxyethylammonium): 100.1%
Stability after 1 week at 60° C. (in words) ([5]; 60° C.): totally decomposed
Stability after 3 weeks at 80° C. (in words) ([5]; 80° C., 3 weeks): totally decomposed

CC(CCCC(C)(C)O)C1CCC2C3CC=C4CC(OS(=O)(=O)O)CCC4(C)C3CCC12C (centres unmarked) [Salt #6]
Compressibility Index [1, 9]: 35
Hausner Ratio [1, 9]: 1.53
Powder flowability, overall (in words) ([2]; listed as hydroxyethylpyrrolidinium): poorer flowability
Angle of Repose Rank Order [2, 9]: 15
Hausner Ratio Rank Order [2, 9]: 10
Overall Rank Order (Total Score) [2, 9]: 25
Flow Property per USP<1174> Powder Flow ([3]; classification by angle of repose, listed as 25HC3S hydroxyethylpyrrolidinium): Poor - must agitate,
Angle of Repose [3, 9]: 53.8 degrees
Angle of Repose, Rounded Whole Number [3, 9]: 54 degrees
Weight loss by TGA up to 181° C. ([4]; up to 181° C.): about 0.1%
Assay ([5]; 2-8° C., 3 wk, 30240 min, listed as 25HC3S hydroxyethylpyrrolidinium): 100.5 % w/w
% Impurities, Total [5, 10]: 2.0%
% Impurities, 25-HC [5, 10]: 0.3%
% Impurities, 25-HC [5, 11]: 0.4%
% Impurities, 25-HC [5, 12]: 0.3%
Physical and chemical solid-state stability (comments) ([5]; 60° C., 1 week, listed as 25HC3S Hydroxyethylpyrrolidinium): Stable after 1 week at 60 °C
Assay ([5]; 60° C., 1 wk (after 3 weeks at 2-8° C.), 10080 min, listed as 25HC3S hydroxyethylpyrrolidinium, 10080 min): 104.9 % w/w
% Recovery of 2-8° C./3 wk vs 60° C./1 wk ([5]; 60° C., 1 wk, 10080 min, listed as 25HC3S hydroxyethylpyrrolidinium): 104.4%
% Impurities, Total [5, 11]: 1.8%
Physical and chemical solid-state stability (comments) ([5]; 80° C., 3 weeks, listed as 25HC3S Hydroxyethylpyrrolidinium): totally decomposed after 3
% Recovery ([5]; 80° C., 3 wk, 30240 min, listed as 25HC3S hydroxyethylpyrrolidinium, 30240 min): 0.0%
Assay ([5]; 80° C., 3 wk, 30240 min, listed as 25HC3S hydroxyethylpyrrolidinium): 0.0 % w/w
% Impurities, Total [5, 12]: 99.9%
Stability after 1 week at 60° C. (in words) ([5]; 60° C.): stable
Stability after 3 weeks at 80° C. (in words) ([5]; 80° C., 3 weeks): totally decomposed
